# Reference: patent US11110082B2, “Tyrosine kinase inhibitors” (Rigel Pharmaceuticals, Inc., priority 2016, dated 2021)
# Biological target: T1, MerTK (Homo sapiens, UniProt Q12866)
# T1 construct: Seed HUVECs (10K cells/well) in EBM-2 complete media; host or cells: HUVEC (primary human umbilical vein endothelial cells)
# T1 sequence (Q12866 21-999): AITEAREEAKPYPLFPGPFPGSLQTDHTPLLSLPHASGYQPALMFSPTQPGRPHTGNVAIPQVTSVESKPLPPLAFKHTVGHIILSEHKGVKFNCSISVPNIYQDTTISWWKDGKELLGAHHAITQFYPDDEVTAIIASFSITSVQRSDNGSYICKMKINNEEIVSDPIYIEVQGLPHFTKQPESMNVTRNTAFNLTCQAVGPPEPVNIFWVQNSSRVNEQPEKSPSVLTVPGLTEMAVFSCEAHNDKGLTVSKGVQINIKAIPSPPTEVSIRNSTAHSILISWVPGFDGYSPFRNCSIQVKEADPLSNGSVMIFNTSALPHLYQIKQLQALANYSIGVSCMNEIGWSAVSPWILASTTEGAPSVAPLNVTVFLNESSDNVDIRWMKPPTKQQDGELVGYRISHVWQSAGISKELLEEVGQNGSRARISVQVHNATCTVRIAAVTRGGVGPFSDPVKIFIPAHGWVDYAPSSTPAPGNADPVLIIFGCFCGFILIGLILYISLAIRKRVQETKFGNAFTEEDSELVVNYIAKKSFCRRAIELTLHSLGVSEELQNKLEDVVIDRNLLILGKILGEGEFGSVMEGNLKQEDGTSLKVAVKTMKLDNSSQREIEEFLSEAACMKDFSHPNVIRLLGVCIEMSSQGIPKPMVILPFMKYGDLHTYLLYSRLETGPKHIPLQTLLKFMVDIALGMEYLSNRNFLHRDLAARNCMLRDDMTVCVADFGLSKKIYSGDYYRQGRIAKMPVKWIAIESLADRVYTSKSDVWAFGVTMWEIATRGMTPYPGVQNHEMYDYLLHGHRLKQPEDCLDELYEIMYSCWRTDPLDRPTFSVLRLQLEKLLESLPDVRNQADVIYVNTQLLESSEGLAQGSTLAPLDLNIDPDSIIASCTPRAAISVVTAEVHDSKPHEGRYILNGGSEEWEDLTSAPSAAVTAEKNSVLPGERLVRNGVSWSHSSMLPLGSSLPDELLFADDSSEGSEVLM
# Assay: PAKT HTRF-HUVEC assay (pAkt Ser473 HTRF after anti-human MerTK-XL stimulation)
# Assay type: cell-based
# Conditions: HUVEC cells, 1 hour compound, stimulated with anti-human MerTK-XL 1 ug/mL for 10 minutes, read-out: inhibition of MerTK
# How it was run: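 Akt Ser473 phosphorylation measured by HTRF in lysates of serum-starved HUVECs. Cells received compound for 1 h at 37° C before a 10-min challenge with antibody-cross-linked anti-MerTK (1 ug/mL final); EC50 derived by curve fit.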
row,Structure (SMILES),EC50 [nM]
1,"O=c1c2cc(CN3CCC4(CC3)COC4)ccc2c2cnc(NC3CCC3)nc2n1[C@H]1CC[C@H](O)CC1 [Compound 209, trans-8-((2-Oxa-7-azaspiro[3.5]nonan-7-yl)methyl)-3-(cyclobutylamino)-5-(4-hydroxycyclohexyl)pyrimido[4,5-c]isoquinolin-6(5H)-one]",13.9
2,"O=c1c2cc(CN3CCC4(CC3)COC4)ccc2c2cnc(NC3CC(F)(F)C3)nc2n1[C@H]1CC[C@H](O)CC1 [Compound 210, trans-8-((2-Oxa-7-azaspiro[3.5]nonan-7-yl)methyl)-3-((3,3-difluorocyclobutyl)amino)-5-(4-hydroxycyclohexyl)pyrimido[4,5-c]isoquinolin-6(5H)-one]",85.6
3,"O=c1c2cc(CN3CCN(c4ccncc4)CC3)ccc2c2cnc(NC3CC(F)(F)C3)nc2n1[C@H]1CC[C@H](O)CC1 [Compound 212, trans-3-((3,3-Difluorocyclobutyl)amino)-5-(4-hydroxycyclohexyl)-8-((4-(pyridin-4-yl)piperazin-1-yl)methyl)pyrimido[4,5-c]isoquinolin-6(5H)-one]",63.6
4,"CCC[C@H](C)Nc1ncc2c3ccc(CN4CCN(C)CC4)cc3c(=O)n([C@H]3CC[C@H](O)CC3)c2n1 [Compound 213, trans-5-(4-hydroxycyclohexyl)-8-((4-methylpiperazin-1-yl)methyl)-3-(((S)-pentan-2-yl)amino)pyrimido[4,5-c]isoquinolin-6(5H)-one]",30.4
5,"CCC[C@H](C)Nc1ncc2c3ccc(CN4CCC5(CC4)COC5)cc3c(=O)n([C@H]3CC[C@H](O)CC3)c2n1 [Compound 214, trans-8-((2-oxa-7-azaspiro[3.5]nonan-7-yl)methyl)-5-(4-hydroxycyclohexyl)-3-(((5)-pentan-2-yl)amino)pyrimido[4,5-c]isoquinolin-6(5H)-one]",10.5
6,CCC[C@H](C)Nc1ncc2c3ccc(CN4CCN(C(C)(C)C)CC4)cc3c(=O)n([C@H]3CC[C@H](O)CC3)c2n1 [Compound 215],3.7
7,"O=c1c2cc(CN3CCN(c4ccncn4)CC3)ccc2c2cnc(NCC3CC3)nc2n1[C@H]1CC[C@H](O)CC1 [Compound 216, trans-3-((Cyclopropylmethyl)amino)-5-(4-hydroxycyclohexyl)-8-((4-(pyrimidin-4-yl)piperazin-1-yl)methyl)pyrimido[4,5-c]isoquinolin-6(5H)-one]",22.5
8,"O=c1c2cc(CN3CCC(c4ccncc4)CC3)ccc2c2cnc(NCC3CC3)nc2n1[C@H]1CC[C@H](O)CC1 [Compound 217, trans-3-((Cyclopropylmethyl)amino)-5-(4-hydroxycyclohexyl)-8-((4-(pyridin-4-yl)piperidin-1-yl)methyl)pyrimido[4,5-c]isoquinolin-6(5H)-one]",4.1
9,"O=c1c2cc(CC3CCN(c4ccncc4)CC3)ccc2c2cnc(NCC3CC3)nc2n1[C@H]1CC[C@H](O)CC1 [Compound 218, trans-3-((Cyclopropylmethyl)amino)-5-(4-hydroxycyclohexyl)-8-((1-(pyridin-4-yl)piperidin-4-yl)methyl)pyrimido[4,5-c]isoquinolin-6(5H)-one]",24.2
10,"CCC[C@H](C)Nc1ncc2c3ccc(CN4CCN(c5ccncc5)CC4)cc3c(=O)n([C@H]3CC[C@H](O)CC3)c2n1 [Compound 219, trans-5-(4-Hydroxycyclohexyl)-3-(((S)-pentan-2-yl)amino)-8-((4-(pyridin-4-yl)piperazin-1-yl)methyl)pyrimido[4,5-c]isoquinolin-6(5H)-one]",18.3
11,"O=c1c2cc(CN3CCN(c4ccncc4)CC3)ccc2c2cnc(NCC3CCC3)nc2n1[C@H]1CC[C@H](O)CC1 [Compound 220, trans-3-((Cyclobutylmethyl)amino)-5-(4-hydroxycyclohexyl)-8-((4-(pyridin-4-yl)piperazin-1-yl)methyl)pyrimido[4,5-c]isoquinolin-6(5H)-one]",11.2
12,"CCC(F)(F)CNc1ncc2c3ccc(CN4CCN(c5ccncc5)CC4)cc3c(=O)n([C@H]3CC[C@H](O)CC3)c2n1 [Compound 221, trans-3-((2,2-Difluorobutyl)amino)-5-(4-hydroxycyclohexyl)-8-((4-(pyridin-4-yl)piperazin-1-yl)methyl)pyrimido[4,5-c]isoquinolin-6(5H)-one]",86.1
13,"O=c1c2cc(CN3CCN(c4ccncc4)CC3)ccc2c2cnc(NCCC3CC3)nc2n1[C@H]1CC[C@H](O)CC1 [Compound 222, trans-3-((2-Cyclopropylethyl)amino)-5-(4-hydroxycyclohexyl)-8-((4-(pyridin-4-yl)piperazin-1-yl)methyl)pyrimido[4,5-c]isoquinolin-6(5H)-one]",14.5
14,"CC(C)CCNc1ncc2c3ccc(CN4CCN(c5ccncc5)CC4)cc3c(=O)n([C@H]3CC[C@H](O)CC3)c2n1 [Compound 223, trans-5-(4-Hydroxycyclohexyl)-3-(isopentylamino)-8-((4-(pyridin-4-yl)piperazin-1-yl)methyl)pyrimido[4,5-c]isoquinolin-6(5H)-one]",14.3
15,"C[C@]1(O)CC[C@H](n2c(=O)c3cc(CN4CCN(c5ccncc5)CC4)ccc3c3cnc(NCC4CC4)nc32)CC1 [Compound 224, trans-3-((Cyclopropylmethyl)amino)-5-(4-hydroxy-4-methylcyclohexyl)-8-((4-(pyridin-4-yl)piperazin-1-yl)methyl)pyrimido[4,5-c]isoquinolin-6(5H)-one]",28.3
16,"O=c1c2cc(CN3CCN(c4ccncc4)CC3)ccc2c2cnc(NC3CCC3)nc2n1[C@H]1CC[C@H](O)CC1 [Compound 225, trans-3-(Cyclobutylamino)-5-(4-hydroxycyclohexyl)-8-((4-(pyridin-4-yl)piperazin-1-yl)methyl)pyrimido[4,5-c]isoquinolin-6(5H)-one]",21
17,"O=c1c2cc(CN3CCN(c4ccncn4)CC3)ccc2c2cnc(NC3CCC3)nc2n1[C@H]1CC[C@H](O)CC1 [Compound 226, trans-3-(Cyclobutylamino)-5-(4-hydroxycyclohexyl)-8-((4-(pyrimidin-4-yl)piperazin-1-yl)methyl)pyrimido[4,5-c]isoquinolin-6(5H)-one]",10.9
18,"O=c1c2cc(CN3CCC(c4ccncc4)CC3)ccc2c2cnc(NC3CCC3)nc2n1[C@H]1CC[C@H](O)CC1 [Compound 227, trans-3-(Cyclobutylamino)-5-(4-hydroxycyclohexyl)-8-((4-(pyridin-4-yl)piperidin-1-yl)methyl)pyrimido[4,5-c]isoquinolin-6(5H)-one]",2.4
19,"O=c1c2cc(CN3CCC(O)(c4ccncc4)CC3)ccc2c2cnc(NCC3CC3)nc2n1[C@H]1CC[C@H](O)CC1 [Compound 228, trans-3-((Cyclopropylmethyl)amino)-8-((4-hydroxy-4-(pyridin-4-yl)piperidin-1-yl)methyl)-5-(4-hydroxycyclohexyl)pyrimido[4,5-c]isoquinolin-6(5H)-one]",26.6
20,"CCCCNc1ncc2c3ccc(CN4CCN(C)CC4)cc3c(=O)n([C@H]3CCC[C@H](O)CC3)c2n1 [Compound 229, 3-(butylamino)-5-((1S,4S)-4-hydroxycycloheptyl)-8-((4-methylpiperazin-1-yl)methyl)pyrimido[4,5-c]isoquinolin-6(5H)-one]",72
21,"CN1CCN(Cc2ccc3c(c2)c(=O)n([C@H]2CCC[C@H](O)CC2)c2nc(NCC4CC4)ncc32)CC1 [Compound 230, 3-((cyclopropylmethyl)amino)-5-((1S,4S)-4-hydroxycycloheptyl)-8-((4-methylpiperazin-1-yl)methyl)pyrimido[4,5-c]isoquinolin-6(5H)-one]",140
22,"CCCCNc1ncc2c3ccc(CN4CCN(C)CC4)cc3c(=O)n([C@H]3CC[C@H](NC(=O)OC(C)(C)C)C3)c2n1 [Compound 231, tert-butyl ((1S,3S)-3-(3-(butylamino)-8-((4-methylpiperazin-1-yl)methyl)-6-oxopyrimido[4,5-c]isoquinolin-5(6H)-yl)cyclopentyl)carbamate]",1910
23,"CCCCNc1ncc2c3ccc(CN4CCN(C)CC4)cc3c(=O)n([C@H]3CC[C@H](N)C3)c2n1 [Compound 232, 5-((1S,3S)-3-aminocyclopentyl)-3-(butylamino)-8-((4-methylpiperazin-1-yl)methyl)pyrimido[4,5-c]isoquinolin-6(5H)-one]",43
24,"CCCCNc1ncc2c3ccc(CN4CCN(C)CC4)cc3c(=O)n([C@H]3CC[C@H](NC(C)=O)C3)c2n1 [Compound 233, N-((1S,3S)-3-(3-(butylamino)-8-((4-methylpiperazin-1-yl)methyl)-6-oxopyrimido[4,5-c]isoquinolin-5(6H)-yl)cyclopentyl)acetamide]",512
